Earlier results, collected in US20170119792A1, “METHODS AND COMPOSITIONS FOR DERMATOLOGICAL USE COMPRISING CLOBETASOL AND HALOBETASOL AND BIOPOLYMERS” (APEX LABORATORIES PRIVATE LIMITED, priority 2015, published 2017).

| solubility in water | Structure (SMILES) |
| --- | --- |
| insoluble in water | CCC(=O)O[C@]1(C(=O)CCl)[C@@H](C)C[C@H]2[C@@H]3CCC4=CC(=O)C=C[C@]4(C)[C@@]3(F)[C@@H](O)C[C@@]21C [Clobetasol propionate, (11β, 16β)-21-chloro-9-fluoro-11-hydroxy-16-methyl-17-(1-oxopropoxy)-pregna-1,4-diene-3, 20-dione] |
| insoluble in water | CCC(=O)O[C@]1(C(=O)CCl)[C@@H](C)C[C@H]2[C@@H]3C[C@H](F)C4=CC(=O)C=C[C@]4(C)[C@@]3(F)[C@@H](O)C[C@@]21C [Halobetasol propionate, 21-chloro-6α, 9-difluoro-11β, 17-dihydroxy-16β-methylpregna-1,4-diene-3, 20-dione17-propionate] |
